Laboratory results taken from ChEMBL document CHEMBL2413005, “A novel necroptosis inhibitor-necrostatin-21 and its SAR study” (Bioorg Med Chem Lett, 2013).

Biological target: Mitogen-activated protein kinase 10/Receptor-interacting serine/threonine-protein kinase 1 (Homo sapiens) (UniProt P53779+Q13546)
Experiment: Ratio of necrostatin-21 EC50 to compound EC50 for RIP1/JNK2 (unknown origin)-mediated necrosis
Type: protein assay

Chain of Mitogen-activated protein kinase 10/Receptor-interacting serine/threonine-protein kinase 1 (Homo sapiens) (P53779 whole entry, looked up): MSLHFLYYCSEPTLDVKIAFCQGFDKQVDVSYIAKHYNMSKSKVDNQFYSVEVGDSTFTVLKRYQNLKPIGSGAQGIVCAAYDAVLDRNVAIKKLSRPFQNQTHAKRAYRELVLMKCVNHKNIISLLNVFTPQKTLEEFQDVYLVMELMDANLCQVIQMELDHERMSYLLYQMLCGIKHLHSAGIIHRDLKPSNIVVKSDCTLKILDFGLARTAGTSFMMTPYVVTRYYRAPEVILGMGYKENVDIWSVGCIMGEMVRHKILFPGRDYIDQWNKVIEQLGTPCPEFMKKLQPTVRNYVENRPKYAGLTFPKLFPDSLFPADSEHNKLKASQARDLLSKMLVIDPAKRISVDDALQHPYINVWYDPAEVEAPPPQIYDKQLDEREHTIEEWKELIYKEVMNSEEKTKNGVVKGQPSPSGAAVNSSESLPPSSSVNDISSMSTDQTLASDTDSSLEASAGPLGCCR
Chain of Mitogen-activated protein kinase 10/Receptor-interacting serine/threonine-protein kinase 1 (Homo sapiens) (Q13546 whole entry, looked up): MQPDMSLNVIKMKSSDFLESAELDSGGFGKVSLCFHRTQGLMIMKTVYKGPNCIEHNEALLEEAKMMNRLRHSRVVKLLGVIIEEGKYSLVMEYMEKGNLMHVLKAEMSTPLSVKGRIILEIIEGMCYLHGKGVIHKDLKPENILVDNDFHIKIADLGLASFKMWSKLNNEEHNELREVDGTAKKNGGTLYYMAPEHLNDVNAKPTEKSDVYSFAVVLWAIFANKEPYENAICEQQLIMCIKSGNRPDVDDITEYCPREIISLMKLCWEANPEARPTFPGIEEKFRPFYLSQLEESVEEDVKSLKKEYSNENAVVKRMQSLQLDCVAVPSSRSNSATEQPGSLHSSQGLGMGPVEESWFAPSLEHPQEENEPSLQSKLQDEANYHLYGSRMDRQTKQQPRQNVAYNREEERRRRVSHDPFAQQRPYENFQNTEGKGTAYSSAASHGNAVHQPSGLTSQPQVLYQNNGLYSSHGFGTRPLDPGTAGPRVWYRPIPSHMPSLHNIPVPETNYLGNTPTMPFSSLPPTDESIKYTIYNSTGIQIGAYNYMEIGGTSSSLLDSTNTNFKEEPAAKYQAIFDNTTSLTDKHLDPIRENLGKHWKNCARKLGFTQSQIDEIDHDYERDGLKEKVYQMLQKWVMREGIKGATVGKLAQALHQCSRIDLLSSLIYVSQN

Structure (SMILES) | Ratio EC50
COc1cc2[nH]c3c(c2cc1C#N)CCc1c[nH]nc1-3 | > 35

Biological target: not listed separately
Experiment: Inhibition of RIP1/JNK2 (unknown origin)-mediated necrosis

Structure (SMILES) | EC50 [nM]
O=[N+]([O-])c1cccc2c3c([nH]c12)-c1n[nH]cc1CC3 | 6320
Cc1cccc2c3c([nH]c12)-c1n[nH]cc1CC3 | 760
CC1Cc2c([nH]c3ccccc23)-c2n[nH]cc21 (configuration not stated) | 810
FC(F)(F)c1ccc2c3c([nH]c2c1)-c1n[nH]cc1CC3 | 250
Fc1cccc2c3c([nH]c12)-c1n[nH]cc1CC3 | 860
COc1ccc2[nH]c3c(c2c1)CCc1c[nH]nc1-3 | 170
Fc1ccc2[nH]c3c(c2c1)CCc1c[nH]nc1-3 | 140
c1ccc2c3c([nH]c2c1)-c1n[nH]cc1C3 | 5790
N#Cc1ccc2c3c([nH]c2c1)-c1n[nH]cc1CC3 | 110
c1ccc2c(c1)[nH]c1c2ccc2c[nH]nc21 | 3620
COc1cc2[nH]c3c(c2cc1C#N)CCc1c[nH]nc1-3 | 14
c1[nH]nc2c1CCc1c-2[nH]c2cc3c(cc12)OCO3 | 150
COc1cc2[nH]c3c(c2cc1OC)CCc1c[nH]nc1-3 | 47
COc1ccc2c3c([nH]c2c1)-c1n[nH]cc1CC3 | 100
c1[nH]nc2c1CCc1c-2[nH]c2cc3c(cc12)OCCO3 | 2640
COc1cc(OC)c2c3c([nH]c2c1)-c1n[nH]cc1CC3 | 110
CCc1ccc2[nH]c3c(c2c1)CCc1c[nH]nc1-3 | 780
Clc1cccc2[nH]c3c(c12)CCc1c[nH]nc1-3 | 670
N#Cc1ccc2[nH]c3c(c2c1)CCc1c[nH]nc1-3 | 80
Clc1ccc2c3c([nH]c2c1)-c1n[nH]cc1CC3 | 250
COc1cccc2[nH]c3c(c12)CCc1c[nH]nc1-3 | 1450
